Test results: ChEMBL document CHEMBL1201862, “PubChem BioAssay data set” (2004)
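Cells were grown in 96-well plates and exposed to each compound for 48 hours at five concentrations; endpoints were interpolated linearly between bracketing concentrations, or set to the highest concentration if not reached. Abbreviation: GI50, concentration required for 50% inhibition of growth.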 Activity calls are given as the source filed them. Cut-off read from the data, not from the text of the source: active = GI50 up to about 1.1 µM and inactive = higher.

Experiments:
Experiment in all cases: growth of human tumour cells (NCI), 48 h
[1] = test system: RXF 393
[2] = test system: EKVX
[3] = test system: KM12
[4] = test system: SK-MEL-5
[5] = test system: A549
[6] = test system: OVCAR-4
[7] = test system: SNB-75
[8] = test system: IGROV-1
[9] = test system: NCI/ADR-RES
[10] = test system: K562
[11] = test system: TK-10
[12] = test system: SK-MEL-2
[13] = test system: BT-549
[14] = test system: HCT-15
[15] = test system: Hs-578T
[16] = test system: DU-145
[17] = test system: CAKI-1
[18] = test system: SK-OV-3
[19] = test system: A498

Row | Compound | GI50 [1] | GI50 [2] | GI50 [3] | GI50 [4] | GI50 [5] | GI50 [6] | GI50 [7] | GI50 [8] | GI50 [9] | GI50 [10] | GI50 [11] | GI50 [12] | GI50 [13] | GI50 [14] [µM] | GI50 [15] | GI50 [16] | GI50 [17] | GI50 [18] | GI50 [19]
1 | C/C=N\n1c(C)c(C#N)c(C#N)c1N | > 100 µM (inactive) | > 100 µM (inactive) | > 100 µM (inactive) | > 100 µM (inactive) | 34.5 µM (inactive) | > 100 µM (inactive) | > 100 µM (inactive) | > 100 µM (inactive) | > 100 µM (inactive) | > 100 µM (inactive) | > 100 µM (inactive) | > 100 µM (inactive) | > 100 µM (inactive) | > 100 | > 100 µM (inactive) | > 100 µM (inactive) | > 100 µM (inactive) | > 100 µM (inactive) | > 100 µM (inactive)
2 | CC(=O)Oc1ccc(/C=C/C(=O)O[C@@H](C)[C@H](C)OC(=O)/C=C/c2ccc(OC(C)=O)c(OC(C)=O)c2)cc1OC(C)=O | 13.6 µM (inactive) | 22.9 µM (inactive) | 9.46 µM (inactive) | 10.6 µM (inactive) | 13.8 µM (inactive) | 28.7 µM (inactive) | 20.1 µM (inactive) | 5.75 µM (inactive) | 22.2 µM (inactive) | 3.99 µM (inactive) | 21.2 µM (inactive) | 19.7 µM (inactive) | 10 µM (inactive) | 6.31 | 11 µM (inactive) | 21.9 µM (inactive) | 27.3 µM (inactive) | 19.5 µM (inactive) | 24.7 µM (inactive)
3 | CC/C(=C\c1ccc(OC)cc1)c1ccc(OC)cc1 | 60.8 µM (inactive) | > 100 µM (inactive) | > 100 µM (inactive) | 30.1 µM (inactive) | > 100 µM (inactive) | > 100 µM (inactive) | > 100 µM (inactive) | > 100 µM (inactive) | > 100 µM (inactive) | > 100 µM (inactive) | > 100 µM (inactive) | 65.6 µM (inactive) | 75.3 µM (inactive) | 74 | > 100 µM (inactive) | > 100 µM (inactive) | > 100 µM (inactive) | > 100 µM (inactive) | > 100 µM (inactive)
4 | Cc1ccc(/N=N/c2c(O)ccc3cc(S(=O)(=O)O)ccc23)c(C)c1 | > 100 µM (inactive) | > 100 µM (inactive) | > 100 µM (inactive) | > 100 µM (inactive) | > 100 µM (inactive) | > 100 µM (inactive) | > 100 µM (inactive) | > 100 µM (inactive) | > 100 µM (inactive) | > 100 µM (inactive) | > 100 µM (inactive) | > 100 µM (inactive) | > 100 µM (inactive) | > 100 | > 100 µM (inactive) | > 100 µM (inactive) | > 100 µM (inactive) | > 100 µM (inactive) | > 100 µM (inactive)
5 | COC(=O)/C=C1/OC(c2ccc(OC)cc2)=C(Cl)C1=O | 10 µM (inactive) | 19.1 µM (inactive) | 18.1 µM (inactive) | 14 µM (inactive) | 23.7 µM (inactive) | 16.3 µM (inactive) | 17.9 µM (inactive) | 16.9 µM (inactive) | 25.8 µM (inactive) | 2.73 µM (inactive) | 24.3 µM (inactive) | 17.2 µM (inactive) | 13.3 µM (inactive) | 17.5 | 25.8 µM (inactive) | 18.2 µM (inactive) | 13.5 µM (inactive) | 16.7 µM (inactive) | 22.5 µM (inactive)
6 | CC[C@@]1(O)C(=O)OCc2c1cc1n(c2=O)Cc2c-1nc1ccc(N)cc1c2CC[Si](C)(C)C | < 0.01 µM (active) | < 0.0212 µM (active) | 0.0155 µM (active) | < 0.01 µM (active) | < 0.01 µM (active) | 0.015 µM (active) | < 0.01 µM (active) | < 0.01 µM (active) | < 0.01 µM (active) | < 0.01 µM (active) | 0.051 µM (active) | 0.0409 µM (active) | < 0.01 µM (active) | 0.0153 | 0.134 µM (active) | < 0.01 µM (active) | < 0.01 µM (active) | < 0.01 µM (active) | < 0.01 µM (active)
7 | C(#CC1(Nc2ccccc2)CCN(Cc2ccccc2)CC1)C1(Nc2ccccc2)CCN(Cc2ccccc2)CC1 | 12.5 µM (inactive) | 40.6 µM (inactive) | 35.3 µM (inactive) | 3.88 µM (inactive) | 23.6 µM (inactive) | 19.3 µM (inactive) | 10 µM (inactive) | 22.9 µM (inactive) | 34.7 µM (inactive) | 1.62 µM (inactive) | 13.2 µM (inactive) | 10.5 µM (inactive) | 34.6 µM (inactive) | 22.2 | 10 µM (inactive) | 46.9 µM (inactive) | 24.3 µM (inactive) | 5.01 µM (inactive) | 30.1 µM (inactive)
8 | CCOc1cc(/C=N/c2nc3cc4sc(/N=C/c5ccc(O)c(OCC)c5)nc4cc3s2)ccc1O | > 100 µM (inactive) | 79.1 µM (inactive) | > 100 µM (inactive) | 71.8 µM (inactive) | 52.4 µM (inactive) | > 100 µM (inactive) | > 100 µM (inactive) | > 100 µM (inactive) | > 100 µM (inactive) | 60.5 µM (inactive) | > 100 µM (inactive) | > 100 µM (inactive) | > 100 µM (inactive) | > 100 | > 100 µM (inactive) | > 100 µM (inactive) | > 100 µM (inactive) | > 100 µM (inactive) | > 100 µM (inactive)
9 | CN(C)/N=N/c1ccc2[nH]c(=O)[nH]c2c1 | > 100 µM (inactive) | > 100 µM (inactive) | > 100 µM (inactive) | > 100 µM (inactive) | > 100 µM (inactive) | > 100 µM (inactive) | > 100 µM (inactive) | > 100 µM (inactive) | > 100 µM (inactive) | > 100 µM (inactive) | > 100 µM (inactive) | > 100 µM (inactive) | > 100 µM (inactive) | > 100 | > 100 µM (inactive) | > 100 µM (inactive) | > 100 µM (inactive) | > 100 µM (inactive) | > 100 µM (inactive)
10 | CCOC(=O)c1c2c(n3ccccc13)C(=O)c1ccccc1C2=O | 48.1 µM (inactive) | > 100 µM (inactive) | > 100 µM (inactive) | 10.7 µM (inactive) | 3.82 µM (inactive) | > 100 µM (inactive) | 19.5 µM (inactive) | > 100 µM (inactive) | > 100 µM (inactive) | > 100 µM (inactive) | 83.4 µM (inactive) | > 100 µM (inactive) | 21.6 µM (inactive) | 11.1 | 19.7 µM (inactive) | > 100 µM (inactive) | > 100 µM (inactive) | > 100 µM (inactive) | 61.4 µM (inactive)
11 | COc1cc(O)c2c(O)c3c(c4c2c1[C@]1(C4)C(C)=CCCC1(C)C)[C@H](O)[C@@]1(O)CC(O)=C(C(N)=O)C(=O)[C@@]1(O)C3=O | 0.459 µM (active) | 0.18 µM (active) | 0.346 µM (active) | 0.175 µM (active) | 0.0499 µM (active) | 0.245 µM (active) | 0.108 µM (active) | 0.643 µM (active) | 0.345 µM (active) | 0.123 µM (active) | 0.189 µM (active) | 0.236 µM (active) | 0.318 µM (active) | 0.164 | 0.147 µM (active) | 0.359 µM (active) | 0.294 µM (active) | 0.348 µM (active) | 0.163 µM (active)
12 | O=C1C=CC(=O)c2c1ccc1c3ccccc3n(-c3cccc([N+](=O)[O-])c3)c21 | 2.38 µM (inactive) | > 5.45 µM (inactive) | > 7.98 µM (inactive) | 5.57 µM (inactive) | > 10 µM (inactive) | 2.81 µM (inactive) | > 10 µM (inactive) | 5.81 µM (inactive) | > 5.58 µM (inactive) | 0.367 µM (active) | 2.24 µM (inactive) | > 10 µM (inactive) | 1.69 µM (inactive) | 2.59 | 3.76 µM (inactive) | > 10 µM (inactive) | 2.55 µM (inactive) | > 10 µM (inactive) | 5.85 µM (inactive)
13 | CCC1=C(CC2NCCc3cc(OC)c(OC)cc32)CC2c3ccccc3CCN2C1 (stereo not given) | 19.8 µM (inactive) | 22.2 µM (inactive) | 23.7 µM (inactive) | 14.8 µM (inactive) | 26.4 µM (inactive) | 22.5 µM (inactive) | 19.8 µM (inactive) | 21.2 µM (inactive) | 29.6 µM (inactive) | 10.1 µM (inactive) | 26.7 µM (inactive) | 15.8 µM (inactive) | 49.4 µM (inactive) | 37.9 | 15.4 µM (inactive) | 38.5 µM (inactive) | 22.4 µM (inactive) | > 100 µM (inactive) | 13.2 µM (inactive)
14 | COc1ccc2c(c1)CCN1CCCc3ccccc3C21 (stereo not given) | 65.8 µM (inactive) | > 100 µM (inactive) | 33.7 µM (inactive) | 58.5 µM (inactive) | 50.5 µM (inactive) | > 100 µM (inactive) | 22 µM (inactive) | 47.6 µM (inactive) | 41.3 µM (inactive) | 30.1 µM (inactive) | > 100 µM (inactive) | 46.3 µM (inactive) | 28.1 µM (inactive) | 37.6 | 42.1 µM (inactive) | > 100 µM (inactive) | 54.1 µM (inactive) | 46.3 µM (inactive) | > 100 µM (inactive)
15 | OCCCNCC(O)c1ccc(OCc2ccccc2)c(OCc2ccccc2)c1 (stereo not given) | 23.4 µM (inactive) | 15 µM (inactive) | 12.5 µM (inactive) | 7.03 µM (inactive) | 11.6 µM (inactive) | 7.41 µM (inactive) | 6.12 µM (inactive) | 10.2 µM (inactive) | 18.7 µM (inactive) | 8.45 µM (inactive) | 7.91 µM (inactive) | 8.02 µM (inactive) | 15.8 µM (inactive) | 13.1 | 13.6 µM (inactive) | 16.9 µM (inactive) | 17.6 µM (inactive) | 9.51 µM (inactive) | 11.9 µM (inactive)
